Results reported in article doi:10.1101/2024.02.03.578754v1 (biorxiv, 2024).

These compounds were tested against T1, OASS (O-acetylserine sulfhydrylase) (Arabidopsis thaliana, UniProt P47998) (assay: biochemical). Details: not given.
T1 sequence (P47998 whole entry): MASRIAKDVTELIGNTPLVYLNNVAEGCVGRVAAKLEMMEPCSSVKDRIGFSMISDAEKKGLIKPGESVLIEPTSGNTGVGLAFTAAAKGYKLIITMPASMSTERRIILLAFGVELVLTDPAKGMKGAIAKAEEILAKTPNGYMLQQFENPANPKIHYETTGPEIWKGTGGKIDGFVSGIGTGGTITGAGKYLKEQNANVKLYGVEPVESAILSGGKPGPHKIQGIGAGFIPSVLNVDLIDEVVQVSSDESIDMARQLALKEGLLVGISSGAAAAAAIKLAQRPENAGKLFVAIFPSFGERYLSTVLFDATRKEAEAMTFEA
Compound `NCCc1ccc(-c2csc(NC(=O)c3ccccc3-c3ccccc3C(=O)O)n2)cc1` [PJ13] has an IC50 of 2 µM.
In the case of `CC(C)Cc1ccc(-c2csc(NC(=O)c3ccccc3-c3ccccc3C(=O)O)n2)cc1` [PJ14], the IC50 is reported as 4.8 µM.
`O=C(Nc1cccc(NC(=O)c2ccccc2-c2ccccc2C(=O)O)c1)c1nccs1` [compound 11, 11] showed an IC50 of 10.1 µM.
`Nc1cc(F)ccc1-c1csc(NC(=O)c2ccccc2-c2ccccc2C(=O)O)n1` [compound 17] showed an IC50 of 2.7 µM.
In the case of `COc1ccc(-c2nc(NC(=O)c3ccccc3-c3ccccc3C(=O)O)sc2C)cc1` [compound 33, 33], the IC50 is reported as 6.7 µM.

Same assay, conditions: read-out: FP IC50; inhibitor
`O=C(O)c1ccccc1-c1ccccc1C(=O)Nc1cccc(-c2nc3ccccc3[nH]2)c1` [PJ8] gave an IC50 of 4.1 µM.
Compound `O=C(O)c1ccccc1-c1cccnc1C(=O)Nc1nc(-c2ccc(Cl)cc2Cl)cs1` [compound 18] has an IC50 of 12.2 µM.

What follows are compounds tested against T1, OASS (O-acetylserine sulfhydrylase) (assay: fluorescence polarization competition). Details: not given.
Type: binding
For `CC(C)Cc1ccc(-c2csc(NC(=O)c3ccccc3-c3ccccc3C(=O)O)n2)cc1` [PJ14], the IC50 was 5.4 µM.
`O=C(O)c1ccccc1-c1ccccc1C(=O)Nc1nc(-c2ccc(Cl)cc2Cl)cs1` [PJ15] gave an IC50 of 4.7 µM.
For `COc1ccc(-c2cc(NC(=O)c3ccccc3-c3ccccc3C(=O)O)n(CCO)n2)cc1` [PJ34], the IC50 was 50 µM.
